In patent publication US7846944B2, “Pyrazolo-pyridinone compounds and methods of use thereof” (Amgen Inc., priority 2007, dated 2010):
pIC50: −log10 of the molar value. Where two headings read alike, the source gives them in different places.

Experiments:
[1] = system: secreted IL-8 by whole blood activated with TNF-α; assay: Inhibition of TNF-α induced IL-8 in 50% human whole blood; format: cell-based; conditions: TNF-α (1 nM) induced IL-8, 50% human whole blood, read-out: WB TNF/IL8 IC50
Description: Inhibition of TNF-α Induced IL-8 in 50% Human Whole Blood
Test compounds were evaluated in vitro for the ability to inhibit the production of secreted IL-8 by whole blood activated with TNF-α. Fresh human whole blood was obtained from healthy, non-medicated volunteers in sodium heparin tubes.
Compound Dilution—Assay Procedure
100 ul heparinized whole blood is plated into wells of 96 well flat bottom plates. 50 ul of either 4× compound or DMSO control (Final DMSO concentration is 0.1%) are added to the appropriate wells. Plates are incubated for 1 hour at 37 degrees Celsius. 50 ul of 4×TNF-α ([…], for a final concentration of 1 nM) or control (media alone) is added to the appropriate wells (Total volume=200 ul). Plates are incubated overnight (16-18 hours). 100 ul of supernatant is collected and stored in 96-well round bottom polypropylene plates at −80 degrees Celsius or assayed immediately for IL-8.
Cytokines are measured on antibody (Ab) sandwich ECL based 96-well detection plates. 20 ul of supernatant are added to plate and plate is sealed and shaken at RT for 1 hour. 130 ul of detection Ab cocktail is added and plates are sealed and shaken for 1 hour in the dark at RT. Plates are read on MSD Sector HTS instrument. Data are analyzed and IC50 values generated using Activity Base and XI-fit programs.

[2] = system: TNF-α secretion by LPS-treated THP1 cells; assay: Lipopolysaccharide-activated THP1 cell TNF production assay; format: cell-based; conditions: Homo sapiens, THP-1; LPS, 3 hours, THP1 cells; read-out: IC50 in the THP-1 cellular TNF production assay
Description: Lipopolysaccharide-Activated THP1 Cell TNF Production Assay
THP1 cells were resuspended in fresh THP1 media (RPMI 1640, 10% heat-inactivated FBS, 1×PGS, 1×NEAA, plus 30 μM βME) at a concentration of 1.5×10^6 cells per mL. One hundred microliters of cells per well were plated in a polystyrene 96-well tissue culture plate. 1.5 micrograms per mL of bacterial LPS was prepared in THP1 media and transferred to the first 11 columns of a 96-well polypropylene plate. Column 12 contained only THP1 media for the LO control. Compounds were dissolved in 100% DMSO and serially diluted 3 fold in a polypropylene 96-well microtiter plate (drug plate). Columns 6 and 12 were reserved as controls (HI controls and LO controls respectively) and contained only DMSO. 10 μL of LPS followed by one microliter of inhibitor compound from the drug plate was transferred to the cell plate. The treated cells were induced to synthesize and secrete TNF-α in a 37° C. humidified incubator with 5% CO2 for 3 hours. Fifty microliters of conditioned media was transferred to a 96-well MULTI-ARRAY™ 96-well small spot plate—custom coated with MAB610 containing 100 μL of 2× Read Buffer P supplemented with 0.34 nM AF210NA polyclonal Ab labeled with ruthenium (MSD-Sulfo-TAG™-NHS ester). After an overnight incubation at room temperature with shaking, the reaction was read on the Sector Imager™ 6000. […] The amount of secreted TNF-α in the presence of AMG compounds compared with that in the presence of DMSO vehicle alone (HI control) was calculated using the formula: % control (POC)=(cpd−average LO)/(average HI−averageLO)*100. Data (consisting of POC and inhibitor concentration in μM) was fitted to a 4-parameter equation (y=A+((B−A)/(1+((x/C)^D))), where A is the minimum y (POC) value, B is the maximum y (POC), C is the x (cpd concentration) at the point of inflection and D is the slope factor) using a Levenburg-Marquardt non-linear regression algorithm.

recombinant human p38α = recombinant human p38α (Homo sapiens, UniProt Q16539); assay: Purified and activated recombinant human p38α HTRF kinase assay; format: biochemical; conditions: 1 nM p38α, 50 μM ATP, GST-ATF2 substrate, read-out: p38a IC50
Description: Purified and Activated Recombinant Human p38α Assay
• Kinase Reaction Buffer: Kinase reaction buffer for p38α HTRF assays consists of 50 mM Tris-pH 7.5, 5 mM MgCl2, 0.1 mg/mL BSA, 100 μM Na3VO4 and 0.5 mM DTT. • HTRF Detection Buffer: HTRF detection buffer contains 100 mM HEPES-pH 7.5, 100 mM NaCl, 0.1% BSA, 0.05% Tween-20, and 10 mM EDTA. • Serial Dilution of Compounds: Compounds were dissolved in 100% DMSO and serially diluted (3 fold, 10 point) in a polypropylene 96-well microtiter plate (drug plate). The final starting concentration of compounds in the p38α enzymatic assays was 1 μM. Columns 6 and 12 (HI controls and LO controls respectively) in the drug plate were reserved as controls and contained only DMSO. • Kinase Reaction The p38α kinase reactions were carried out in a polypropylene 96-well black round bottom assay plate in total volume of 30 μL kinase reaction buffer. Appropriate concentration of purified and activated enzyme (recombinant human) was mixed with indicated concentration of ATP and 100 nM GST-ATF2-Avitag, in the presence or absence (HI control) of Compound. See table below for actual concentrations. In the absence of substrate, the background was measured as LO control. The reaction was allowed to incubate for 1 hour at RT. • Assay Reagent Concentrations: The final reagent concentrations were 1 nM p38α and 50 μM ATP. […] After 60 minutes incubation at room temperature, the assay plate was read in a Discovery Plate Reader. The wells were excited with coherent 320 nm light and the ratio of delayed ([…] post excitation) emissions at […] (native europium fluorescence) and 665 nm (europium fluorescence transferred to allophycocyanin—an index of substrate phosphorylation) was determined (Park et al, 1999). • Data Analysis: The proportion of substrate phosphorylated in the kinase reaction in the presence of compound compared with that phosphorylated in the presence of DMSO vehicle alone (HI control) was calculated using the formula: % control (POC)=(compound−average LO)/(average HI−average LO)*100. Data (consisting of POC and inhibitor concentration in μM) was fitted to a 4-parameter equation (y=A+((B−A)/(1+((x/C)^D))), where A is the minimum y (POC) value, B is the maximum y (POC), C is the x (compound concentration) at the point of inflection and D is the slope factor, using a Levenburg-Marquardt non-linear regression algorithm.
The inhibition constant (Ki) of the inhibitor was estimated from the IC50 (compound concentration at the point of inflection C) using the Cheng-Prussof equation: Ki=IC50/(1+S/Km), where S is the ATP substrate concentration, and Km is the Michaelis constant for ATP as determined experimentally. All results were expressed as the mean±the standard error of the mean. Data acquisition and non-linear regression algorithms were performed using Activity Base v5.2 and XL-fit software v4.1 respectively. All data was archived using Activity Base v5.2 software.

Chain of recombinant human p38α (Q16539 whole entry): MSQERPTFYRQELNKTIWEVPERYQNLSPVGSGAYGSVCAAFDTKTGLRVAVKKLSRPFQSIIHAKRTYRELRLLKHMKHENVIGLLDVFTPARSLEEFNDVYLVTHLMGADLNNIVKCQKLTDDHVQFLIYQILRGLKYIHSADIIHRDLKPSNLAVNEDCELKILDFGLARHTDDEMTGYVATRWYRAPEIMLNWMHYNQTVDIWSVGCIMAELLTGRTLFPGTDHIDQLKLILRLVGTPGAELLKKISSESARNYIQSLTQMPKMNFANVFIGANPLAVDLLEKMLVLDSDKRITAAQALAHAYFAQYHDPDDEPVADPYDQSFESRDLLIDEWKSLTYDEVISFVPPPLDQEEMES

Question: With `Cc1ccc(C(=O)NC2CC2)cc1-c1cc2cnn(S(=O)(=O)C3CC3)c2n(C)c1=O` [Example 47, N-cyclopropyl-3-(1-(cyclopropylsulfonyl)-7-methyl-6-oxo-6,7-dihydro-1H-pyrazolo[3,4-b]pyridin-5-yl)-4-methylbenzamide] as the molecule, how does the pIC50 ([1]; Homo sapiens) read?
Answer: Its pIC50 is 6.18.

Question: With `Cc1c(F)cc(C(=O)NC(C)C)cc1-c1cc2cnn(-c3c(F)cccc3F)c2n(C)c1=O` [Example 21, 3-(1-(2,6-difluorophenyl)-7-methyl-6-oxo-6,7-dihydro-1H-pyrazolo[3,4-b]pyridin-5-yl)-5-fluoro-4-methyl-N-(1-methylethyl)benzamide] as the molecule, how does the pIC50 [2] read?
Answer: Its pIC50 is at least 6.76.

Question: What about the pIC50 (recombinant human p38α) of the same molecule?
Answer: The pIC50 was 8.15.

Question: What does the source list for `Cc1cnc(C(=O)NC2CC2)cc1-c1cc2cnn(-c3c(F)cccc3F)c2n(C)c1=O` [Example 19, N-cyclopropyl-4-(1-(2,6-difluorophenyl)-7-methyl-6-oxo-6,7-dihydro-1H-pyrazolo[3,4-b]pyridin-5-yl)-5-methyl-2-pyridinecarboxamide]?
Answer: pIC50 [2]: ≥ 6.76; pIC50 (recombinant human p38α): 7.74

Question: How did the pIC50 [2] turn out when `Cn1c(=O)c(-c2cc(C(=O)NC3CC3)ccc2CO)cc2cnn(-c3c(F)cccc3F)c21` [Example 32, N-cyclopropyl-3-(1-(2,6-difluorophenyl)-7-methyl-6-oxo-6,7-dihydro-1H-pyrazolo[3,4-b]pyridin-5-yl)-4-(hydroxymethyl)benzamide] was run?
Answer: Its pIC50 is at least 6.76.

Question: And the pIC50 (recombinant human p38α)?
Answer: Its pIC50 is 7.68.

Question: `Cc1ccc(C(=O)Nc2ccon2)cc1-c1cc2cnn(-c3c(F)cccc3F)c2n(C)c1=O` [Example 18, 3-(1-(2,6-difluorophenyl)-7-methyl-6-oxo-6,7-dihydro-1H-pyrazolo[3,4-b]pyridin-5-yl)-N-3-isoxazolyl-4-methylbenzamide] was tested. Which pIC50 [2] did it give?
Answer: Its pIC50 is at least 6.76.

Question: And the pIC50 (recombinant human p38α)?
Answer: The pIC50 was 8.52.

Question: With `Cc1ccc(C(=O)Nc2nccs2)cc1-c1cc2cnn(-c3c(F)cccc3F)c2n(C)c1=O` [Example 28, 3-(1-(2,6-difluorophenyl)-7-methyl-6-oxo-6,7-dihydro-1H-pyrazolo[3,4-b]pyridin-5-yl)-4-methyl-N-1,3-thiazol-2-ylbenzamide] as the molecule, how does the pIC50 [2] read?
Answer: Its pIC50 is at least 6.76.

Question: What about the pIC50 (recombinant human p38α) of the same molecule?
Answer: The pIC50 was 8.96.

Question: How did the pIC50 [2] turn out when `Cc1ccc(C(=O)NC2CC2)cc1-c1cc2cnn(-c3c(F)cccc3F)c2n(C)c1=S` [Example 34, N-cyclopropyl-3-(1-(2,6-difluorophenyl)-7-methyl-6-thioxo-6,7-dihydro-1H-pyrazolo[3,4-b]pyridin-5-yl)-4-methylbenzamide] was run?
Answer: The pIC50 was at least 6.76.

Question: And the pIC50 (recombinant human p38α)?
Answer: Its pIC50 is 8.59.

Question: With `Cc1ccc(I)cc1-c1cc2cnn(-c3c(F)cccc3F)c2n(C)c1=O` [Example 40, 1-(2,6-difluorophenyl)-5-(5-iodo-2-methylphenyl)-7-methyl-1,7-dihydro-6H-pyrazolo[3,4-b]pyridin-6-one] as the molecule, how does the pIC50 ([1]; Homo sapiens) read?
Answer: Its pIC50 is at most 5.60.

Question: `Cn1c(=O)c(-c2cc(C#N)ccc2Cl)cc2cnn(-c3c(F)cccc3F)c21` [Example 33, 4-chloro-3-(1-(2,6-difluorophenyl)-7-methyl-6-oxo-6,7-dihydro-1H-pyrazolo[3,4-b]pyridin-5-yl)benzonitrile] was tested. Which pIC50 ([1]; Homo sapiens) did it give?
Answer: The pIC50 was at most 5.60.

Question: “N-cyclopropyl-3-(1-(2,4-difluorophenyl)-7-methyl-6-thioxo-6,7-dihydro-1H-pyrazolo[3,4-b]pyridin-5-yl)-4-methylbenzenecarbothioamide [Example 51]” was tested. Which pIC50 [1] did it give?
Answer: Its pIC50 is 6.65.

Question: With `CNC(=O)c1cc(F)c(C)c(-c2cc3cnn(-c4c(F)cccc4F)c3n(C)c2=O)c1` [Example 22, 3-(1-(2,6-difluorophenyl)-7-methyl-6-oxo-6,7-dihydro-1H-pyrazolo[3,4-b]pyridin-5-yl)-5-fluoro-N,4-dimethylbenzamide] as the molecule, how does the pIC50 [2] read?
Answer: Its pIC50 is at least 6.76.

Question: And the pIC50 (recombinant human p38α)?
Answer: Its pIC50 is 8.21.

Question: What does the source list for `Cc1ccc(C(=O)NC2(C)CC2)cc1-c1cc2cnn(-c3cc(F)ccc3F)c2n(C)c1=O` [Example 25, 3-(1-(2,5-difluorophenyl)-7-methyl-6-oxo-6,7-dihydro-1H-pyrazolo[3,4-b]pyridin-5-yl)-4-methyl-N-(1-methylcyclopropyl)benzamide]?
Answer: pIC50 [2]: ≥ 6.76; pIC50 (recombinant human p38α): 8.96

Question: `Cc1ccc(C(=O)NC2CC2)cc1-c1cc2cnn(-c3ccc(F)cc3F)c2n(CC(O)CO)c1=O` (stereo not drawn) [Example 35, N-cyclopropyl-3-(1-(2,4-difluorophenyl)-7-(2,3-dihydroxypropyl)-6-oxo-6,7-dihydro-1H-pyrazolo[3,4-b]pyridin-5-yl)-4-methylbenzamide] was tested. Which pIC50 [2] did it give?
Answer: The pIC50 was at least 6.76.

Question: And the pIC50 (recombinant human p38α)?
Answer: Its pIC50 is 7.47.

Question: How did the pIC50 [2] turn out when `Cc1ccc(C(=O)Nc2ccnn2C)cc1-c1cc2cnn(-c3c(F)cccc3F)c2n(C)c1=O` [Example 10, 3-(1-(2,6-difluorophenyl)-7-methyl-6-oxo-6,7-dihydro-1H-pyrazolo[3,4-b]pyridin-5-yl)-4-methyl-N-(1-methyl-1H-pyrazol-5-yl)benzamide] was run?
Answer: The pIC50 was at least 6.76.

Question: And the pIC50 (recombinant human p38α)?
Answer: The pIC50 was 8.54.

Question: With `Cc1c(F)cc(C(=O)NC2CC2)cc1-c1cc2cnn(-c3ccc(F)cc3F)c2n(C)c1=O` [Example 11, N-cyclopropyl-3-(1-(2,4-difluorophenyl)-7-methyl-6-oxo-6,7-dihydro-1H-pyrazolo[3,4-b]pyridin-5-yl)-5-fluoro-4-methylbenzamide] as the molecule, how does the pIC50 [2] read?
Answer: The pIC50 was at least 6.76.

Question: And the pIC50 (recombinant human p38α)?
Answer: Its pIC50 is 8.59.

Question: How did the pIC50 [2] turn out when `Cc1ccccc1-n1ncc2cc(-c3cc(C(=O)NC4CC4)cc(F)c3C)c(=O)n(C)c21` [Example 15, N-cyclopropyl-3-fluoro-4-methyl-5-(7-methyl-1-(2-methylphenyl)-6-oxo-6,7-dihydro-1H-pyrazolo[3,4-b]pyridin-5-yl)benzamide] was run?
Answer: Its pIC50 is at least 6.76.

Question: What about the pIC50 (recombinant human p38α) of the same molecule?
Answer: The pIC50 was 8.28.

Question: What does the source list for `Cc1ccc(C(=O)NC2CC2)cc1-c1cc2cnn(-c3ccc(F)cc3)c2n(C)c1=O` [Example 52, N-cyclopropyl-3-(1-(4-fluorophenyl)-7-methyl-6-oxo-6,7-dihydro-1H-pyrazolo[3,4-b]pyridin-5-yl)-4-methylbenzamide]?
Answer: pIC50 [2]: ≥ 6.76; pIC50 (recombinant human p38α): 8.21
